Experimental data as given in BindingDB's records for doi:10.1021/jm021089h (Institute of Biomedical Chemistry of Russian Academy of …, 2003).

The compounds below were run against Angiotensin-converting enzyme (Bos taurus) (UniProt P12820) (assay: Inhibitory activity against Angiotensin I converting enzyme (ACE) from bovine kidney).
Chain of Angiotensin-converting enzyme (Bos taurus) (P12820 whole entry, looked up): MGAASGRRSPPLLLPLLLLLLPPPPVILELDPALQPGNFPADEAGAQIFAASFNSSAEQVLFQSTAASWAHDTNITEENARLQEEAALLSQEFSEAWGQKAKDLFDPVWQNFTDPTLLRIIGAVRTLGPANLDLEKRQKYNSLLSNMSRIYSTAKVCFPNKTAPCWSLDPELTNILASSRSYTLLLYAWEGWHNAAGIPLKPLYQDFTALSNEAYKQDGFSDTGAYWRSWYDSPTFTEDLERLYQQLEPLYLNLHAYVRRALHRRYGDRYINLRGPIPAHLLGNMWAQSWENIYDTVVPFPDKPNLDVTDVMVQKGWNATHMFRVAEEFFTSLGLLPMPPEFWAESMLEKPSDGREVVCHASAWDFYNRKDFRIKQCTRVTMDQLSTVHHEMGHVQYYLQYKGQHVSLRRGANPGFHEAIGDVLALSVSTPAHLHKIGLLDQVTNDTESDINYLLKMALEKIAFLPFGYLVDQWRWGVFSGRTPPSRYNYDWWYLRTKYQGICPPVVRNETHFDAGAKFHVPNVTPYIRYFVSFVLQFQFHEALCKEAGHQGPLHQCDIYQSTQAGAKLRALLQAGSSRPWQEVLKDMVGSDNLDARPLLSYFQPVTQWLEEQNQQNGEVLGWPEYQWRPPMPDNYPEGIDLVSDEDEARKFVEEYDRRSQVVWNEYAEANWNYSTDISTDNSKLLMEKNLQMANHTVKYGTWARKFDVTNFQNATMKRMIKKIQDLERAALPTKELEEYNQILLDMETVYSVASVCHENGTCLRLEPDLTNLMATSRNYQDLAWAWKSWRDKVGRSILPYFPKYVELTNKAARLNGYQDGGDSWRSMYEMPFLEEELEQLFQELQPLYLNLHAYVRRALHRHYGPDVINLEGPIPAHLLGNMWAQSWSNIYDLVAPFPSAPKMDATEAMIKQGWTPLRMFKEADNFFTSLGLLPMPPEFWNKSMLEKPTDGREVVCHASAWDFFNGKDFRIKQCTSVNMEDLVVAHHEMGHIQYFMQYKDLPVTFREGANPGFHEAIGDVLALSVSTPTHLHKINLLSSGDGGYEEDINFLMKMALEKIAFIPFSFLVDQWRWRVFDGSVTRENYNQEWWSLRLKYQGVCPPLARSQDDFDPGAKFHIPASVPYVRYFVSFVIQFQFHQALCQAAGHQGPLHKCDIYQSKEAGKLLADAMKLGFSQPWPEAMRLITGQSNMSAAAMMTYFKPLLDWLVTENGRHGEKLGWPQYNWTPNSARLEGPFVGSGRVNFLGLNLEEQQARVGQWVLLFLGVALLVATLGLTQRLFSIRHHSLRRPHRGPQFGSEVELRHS

Q: With `CC1CCCC(C(=O)O)N1C(=O)CCS` (stereo not drawn) [1-(3-Mercapto-propionyl)-6-methyl-piperidine-2-carboxylic acid] as the compound, how does the IC50 read?
A: 1 nM

Q: Which IC50 does the source give for `CC(=O)SCC(C)C(=O)NCc1ccccc1` (stereo not drawn) [Thioacetic acid S-(2-benzylcarbamoyl-propyl) ester] here?
A: 500000 nM

Q: With `CC(=O)SCC(C)C(=O)Nc1ccccc1` (stereo not drawn) [Thioacetic acid S-(2-phenylcarbamoyl-propyl) ester] as the compound, how does the IC50 read?
A: 300 nM
